Where “and” joins values, the source holds several entries; their conditions need not be identical. Equal entries are not always repeated. Toxic doses and inconclusive results are not listed.
Test system: L1210 leukemia ip in BDF1 mice, survival T/C
Test: NCI In Vivo Anticancer Drug Screen. Data for tumor model L1210 Leukemia (intraperitoneal) in B6D2F1 (BDF1) mice
Settings: endpoint: mean survival time, higher = longer survival
How it was run: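 Mice bearing the transplanted tumor received compound or vehicle. Survival of the treated group was divided by that of the vehicle-treated control group to give the ratio.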

[1] = dose: 100.0 mg/kg/injection, schedule: Q04DX002 (ip), vehicle: saline
[2] = dose: 100.0 mg/kg/injection, schedule: Q04DX003 (ip), vehicle: Klucel (hydroxypropylcellulose) (HPC)
[3] = dose: 200.0 mg/kg/injection, schedule: Q04DX002 (ip), vehicle: saline
[4] = dose: 200.0 mg/kg/injection, schedule: Q04DX003 (ip), vehicle: Klucel (hydroxypropylcellulose) (HPC)
[5] = dose: 400.0 mg/kg/injection, schedule: Q04DX003 (ip), vehicle: Klucel (hydroxypropylcellulose) (HPC)
[6] = dose: 12.5 mg/kg/injection, schedule: Q01DX009 (ip), vehicle: Klucel (hydroxypropylcellulose) (HPC)
[7] = dose: 25.0 mg/kg/injection, schedule: Q01DX009 (ip), vehicle: Klucel (hydroxypropylcellulose) (HPC)
[8] = dose: 400.0 mg/kg/injection, schedule: Q01DX009 (ip), vehicle: Klucel (hydroxypropylcellulose) (HPC)
[9] = dose: 100.0 mg/kg/injection, schedule: Q01DX009 (ip), vehicle: saline
[10] = dose: 100.0 mg/kg/injection, schedule: Q01DX001 (ip), vehicle: carboxymethylcellulose (CMC)
[11] = dose: 200.0 mg/kg/injection, schedule: Q01DX001 (ip), vehicle: carboxymethylcellulose (CMC)
[12] = dose: 6.25 mg/kg/injection, schedule: Q01DX009 (ip), vehicle: Klucel (hydroxypropylcellulose) (HPC)
[13] = dose: 100.0 mg/kg/injection, schedule: Q04DX002 (ip), vehicle: Klucel (hydroxypropylcellulose) (HPC)

## O=C(O)C(Br)C(Br)C(=O)O (stereo not given)
[1]
  T/C: 92 % of control
[2]
  T/C: 97 % of control
[3]
  T/C: 100 % of control
[4]
  T/C: 103 % of control
[5]
  T/C: 95 % of control

## c1ccc(C2OCCCO2)cc1
[6]
  T/C: 92 % of control
[7]
  T/C: 100 % of control
[8]
  T/C: 87 % of control

## CCNC(C)(C)C(Cl)c1cccs1 (stereo not given)
[9]
  T/C: 101 % of control
dose: 100.0 mg/kg/injection, schedule: Q04DX003 (ip), vehicle: saline
  T/C: 96 % of control
dose: 200.0 mg/kg/injection, schedule: Q01DX009 (ip), vehicle: saline
  T/C: 100 % of control
dose: 200.0 mg/kg/injection, schedule: Q04DX003 (ip), vehicle: saline
  T/C: 93 % of control

## COc1ccccc1/C=C\C(=O)C1COCN1 (stereo not given)
dose: 75.0 mg/kg/injection, schedule: Q04DX003 (ip), vehicle: saline
  T/C: 105 % of control
dose: 150.0 mg/kg/injection, schedule: Q04DX003 (ip), vehicle: saline
  T/C: 100 % of control
dose: 300.0 mg/kg/injection, schedule: Q04DX003 (ip), vehicle: saline
  T/C: 102 % of control

## CCC[CH2][Sn]([CH2]CCC)([S]C#N)[S]C#N
dose: 3.12 mg/kg/injection, schedule: Q04DX002 (ip), vehicle: gum acacia
  T/C: 101 % of control
dose: 6.25 mg/kg/injection, schedule: Q04DX002 (ip), vehicle: gum acacia
  T/C: 96 % of control
dose: 12.5 mg/kg/injection, schedule: Q04DX002 (ip), vehicle: gum acacia
  T/C: 96 % of control

## OCC(O)C(O)C(O)CO (stereo not given)
[1]
  T/C: 107 % of control
[3]
  T/C: 104 % of control
dose: 400.0 mg/kg/injection, schedule: Q04DX002 (ip), vehicle: saline
  T/C: 96 % of control

## CC(=O)[O][Hg][CH2]C1(C)COC(C)([CH2][Hg][O]C(C)=O)CO1 (stereo not given)
dose: 10.0 mg/kg/injection, schedule: Q01DX001 (ip), vehicle: carboxymethylcellulose (CMC)
  T/C: 108 % of control
dose: 20.0 mg/kg/injection, schedule: Q01DX001 (ip), vehicle: carboxymethylcellulose (CMC)
  T/C: 97 % of control
dose: 80.0 mg/kg/injection, schedule: Q01DX001 (ip), vehicle: carboxymethylcellulose (CMC)
  T/C: 97 % of control

## Cc1ccc(S(=O)(=O)N(SSN(c2ccccc2)S(=O)(=O)c2ccc(C)cc2)c2ccccc2)cc1
dose: 100.0 mg/kg/injection, schedule: Q04DX002 (ip), vehicle: carboxymethylcellulose (CMC)
  T/C: 95 % of control and 98 % of control
dose: 200.0 mg/kg/injection, schedule: Q04DX002 (ip), vehicle: carboxymethylcellulose (CMC)
  T/C: 95 % of control and 101 % of control
dose: 400.0 mg/kg/injection, schedule: Q04DX002 (ip), vehicle: carboxymethylcellulose (CMC)
  T/C: 95 % of control and 106 % of control

## CC(=O)Nc1ccc(S(=O)(=O)Oc2ccc([N+](=O)[O-])cc2)cc1
dose: 25.0 mg/kg/injection, schedule: Q01DX009 (ip), vehicle: saline
  T/C: 94 % of control
dose: 50.0 mg/kg/injection, schedule: Q01DX009 (ip), vehicle: saline
  T/C: 96 % of control
[9]
  T/C: 94 % of control
dose: 400.0 mg/kg/injection, schedule: Q01DX009 (ip), vehicle: saline
  T/C: 100 % of control

## CCOC(=O)Cc1cc(=O)c2ccccc2[nH]1
dose: 100.0 mg/kg/injection, schedule: Q04DX003 (ip), vehicle: acetone
  T/C: 96 % of control
dose: 200.0 mg/kg/injection, schedule: Q04DX003 (ip), vehicle: acetone
  T/C: 97 % of control
dose: 400.0 mg/kg/injection, schedule: Q04DX003 (ip), vehicle: acetone
  T/C: 103 % of control

## O=C(Oc1ccc(N=Nc2ccccc2)c(C(=O)O)c1)Oc1ccc(N=Nc2ccccc2)c(C(=O)O)c1
[10]
  T/C: 101 % of control
[11]
  T/C: 98 % of control

## N=C(N)c1nn(C2OC(CO)C(O)C2O)c2ncnc(N)c12 (stereo not given)
dose: 3.12 mg/kg/injection, schedule: Q01DX009 (ip), vehicle: Klucel (hydroxypropylcellulose) (HPC)
  T/C: 102 % of control
[12]
  T/C: 124 % of control
dose: 9.0 mg/kg/injection, schedule: Q01DX005 (ip), vehicle: saline
  T/C: 159 % of control
[6]
  T/C: 115 % of control
dose: 15.0 mg/kg/injection, schedule: Q01DX005 (ip), vehicle: saline
  T/C: 185 % of control
dose: 25.0 mg/kg/injection, schedule: Q01DX005 (ip), vehicle: saline
  T/C: 201 % of control
dose: 42.0 mg/kg/injection, schedule: Q01DX005 (ip), vehicle: saline
  T/C: 204 % of control

## COC(=O)C1CC(=O)N(Cc2ccccc2)C1 (stereo not given)
[13]
  T/C: 89 % of control
dose: 200.0 mg/kg/injection, schedule: Q04DX002 (ip), vehicle: Klucel (hydroxypropylcellulose) (HPC)
  T/C: 100 % of control
dose: 400.0 mg/kg/injection, schedule: Q04DX002 (ip), vehicle: Klucel (hydroxypropylcellulose) (HPC)
  T/C: 92 % of control

## CC(C)=CCC1=C(O)C(C)=CC(=O)C1=O
dose: 100.0 mg/kg/injection, schedule: Q01DX001 (ip), vehicle: water
  T/C: 97 % of control
dose: 200.0 mg/kg/injection, schedule: Q01DX001 (ip), vehicle: water
  T/C: 94 % of control
dose: 400.0 mg/kg/injection, schedule: Q01DX001 (ip), vehicle: water
  T/C: 97 % of control

## Cc1ccc(S(=O)(=O)OCC2OCOC2C2OCOC2COS(=O)(=O)c2ccc(C)cc2)cc1 (stereo not given)
dose: 56.25 mg/kg/injection, schedule: Q01DX009 (ip), vehicle: carboxymethylcellulose (CMC)
  T/C: 95 % of control
[10]
  T/C: 95 % of control
dose: 112.5 mg/kg/injection, schedule: Q01DX009 (ip), vehicle: carboxymethylcellulose (CMC)
  T/C: 89 % of control
[11]
  T/C: 96 % of control
dose: 225.0 mg/kg/injection, schedule: Q01DX009 (ip), vehicle: carboxymethylcellulose (CMC)
  T/C: 87 % of control
dose: 400.0 mg/kg/injection, schedule: Q01DX001 (ip), vehicle: carboxymethylcellulose (CMC)
  T/C: 90 % of control

## CS(=O)(=O)c1ccc(F)cc1
[2]
  T/C: 103 % of control
[4]
  T/C: 103 % of control
[5]
  T/C: 97 % of control

## S=P(NCCSCc1ccccc1)(N1CC1)N1CC1
dose: 6.5 mg/kg/injection, schedule: Q01DX011 (ip), vehicle: carboxymethylcellulose (CMC)
  T/C: 98 % of control
dose: 13.0 mg/kg/injection, schedule: Q01DX011 (ip), vehicle: carboxymethylcellulose (CMC)
  T/C: 102 % of control
dose: 26.0 mg/kg/injection, schedule: Q01DX011 (ip), vehicle: carboxymethylcellulose (CMC)
  T/C: 110 % of control
dose: 200.0 mg/kg/injection, schedule: Q01DX015 (ip), vehicle: carboxymethylcellulose (CMC)
  T/C: 106 % of control

## CC1=NC(C#N)=C(C#N)N=C(C)C1
[12]
  T/C: 107 % of control
[6]
  T/C: 98 % of control
[7]
  T/C: 119 % of control
dose: 50.0 mg/kg/injection, schedule: Q01DX009 (ip), vehicle: Klucel (hydroxypropylcellulose) (HPC)
  T/C: 107 % of control

## C(=C\c1ccccc1)/Cc1ccccc1
dose: 100.0 mg/kg/injection, schedule: Q01DX009 (ip), vehicle: Klucel (hydroxypropylcellulose) (HPC)
  T/C: 97 % of control
[2]
  T/C: 101 % of control
dose: 200.0 mg/kg/injection, schedule: Q01DX009 (ip), vehicle: Klucel (hydroxypropylcellulose) (HPC)
  T/C: 95 % of control
[4]
  T/C: 111 % of control
[8]
  T/C: 103 % of control
[5]
  T/C: 92 % of control

## CCOC(=O)C(NC(C)=O)(C(=O)OCC)C(=O)c1ccc(Cl)cc1
[10]
  T/C: 89 % of control
[11]
  T/C: 94 % of control

## O=C(/C=C/c1ccccc1)OCc1ccccc1CN1C=CON1
dose: 25.0 mg/kg/injection, schedule: Q04DX002 (ip), vehicle: Klucel (hydroxypropylcellulose) (HPC)
  T/C: 115 % of control
dose: 50.0 mg/kg/injection, schedule: Q04DX002 (ip), vehicle: Klucel (hydroxypropylcellulose) (HPC)
  T/C: 105 % of control
[13]
  T/C: 105 % of control

## CCNc1nnc(N=Nc2ccccc2)s1
dose: 12.5 mg/kg/injection, schedule: Q01DX009 (ip), vehicle: saline with Tween-80
  T/C: 97 % of control
dose: 25.0 mg/kg/injection, schedule: Q01DX009 (ip), vehicle: saline with Tween-80
  T/C: 102 % of control and 92 % of control
dose: 50.0 mg/kg/injection, schedule: Q01DX009 (ip), vehicle: saline with Tween-80
  T/C: 86 % of control
dose: 100.0 mg/kg/injection, schedule: Q01DX009 (ip), vehicle: saline with Tween-80
  T/C: 91 % of control
dose: 100.0 mg/kg/injection, schedule: Q04DX002 (ip), vehicle: saline with Tween-80
  T/C: 170 % of control
dose: 200.0 mg/kg/injection, schedule: Q04DX002 (ip), vehicle: saline with Tween-80
  T/C: 98 % of control
dose: 400.0 mg/kg/injection, schedule: Q01DX009 (ip), vehicle: saline with Tween-80
  T/C: 91 % of control
dose: 400.0 mg/kg/injection, schedule: Q04DX002 (ip), vehicle: saline with Tween-80
  T/C: 98 % of control

Reference: PubChem BioAssay AID248 (DTP/NCI, 2004)
